Experimental data from patent US11685732B2, “MYST family histone acetyltransferase inhibitors” (Epizyme, Inc., priority 2017, dated 2023).
pIC50: −log10 of the molar value. Read-outs that look alike come from different tables or passages of the source.

Legend:
KAT-5 = KAT-5 (Homo sapiens (Human), UniProt Q92993); assay: KAT-5 biochemical inhibition assay (SAMDI mass spectrometry)
How it was run: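 Acetylation of 1 μM peptide by 9 nM enzyme with 0.5 μM acetyl-CoA (final) was run 90 min at 25° C in Tris pH 8.0 buffer with DTT, after compound preincubation at 2% DMSO. Formic acid stopped the reaction, and product was quantified by SAMDI mass spectrometry to derive IC50.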

KAT-6A = KAT-6A (Homo sapiens (Human), UniProt Q92794); assay: KAT-6A biochemical inhibition assay (SAMDI mass spectrometry)
How it was run: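 IC50 values came from SAMDI time-of-flight mass spectrometry after formic acid quench (0.5% final). Acetylation ran 90 min at 25 °C with 1 μM acetyl coenzyme A and 1 μM peptide substrate, following compound pre-incubation with 12.5 nM KAT-6A in Tris buffer pH 8.0 containing DTT, 2% DMSO final.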

KAT-7 = KAT-7 (Homo sapiens (Human), UniProt O95251); assay: KAT-7 biochemical inhibition assay (SAMDI mass spectrometry)
How it was run: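 Read-out was SAMDI time-of-flight MS of formic acid-quenched reactions (0.5% final). Compound dilutions (2% DMSO final) were pre-incubated with 6 nM KAT-7 in 50 mM Tris pH 8.0 with 1 mM DTT, then given 1 μM peptide substrate and 2 μM acetyl-CoA for 120 min at 25 °C. IC50 values were derived.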

[1] = test system: H3K23 acetylation in CAL-120 cells; assay: Inhibition of acetylation of H3K23 in Human cell line CAL-120; assay type: cell-based; conditions: CAL-120 cell line, 3 hours, serial dilutions starting at 10 μM; FIG. 1
Experimental: Inhibition of acetylation of H3K23 in Human cell line CAL-120. Cell line CAL-120 was plated in eleven 10 cm tissue culture dishes at a cell density of 4×10^5 cells/cm^2 and treated with ten 2-fold serial dilutions of compound A-30 starting at 10 μM and one dish with DMSO (vehicle control) for 3 hours. Cells were tripsinized, washed twice with ice cold PBS and snap-frozen. Histones were extracted from cell pellets. Protein concentration was assessed and 60 ng of protein sample from histone extraction was prepared in triplicate in 100 μl coating buffer (0.05% w/v BSA in PBS) and added directly to high binding 96 well plates. Plates were left at 4° C. overnight to allow protein to adhere. Coating buffer with histones was discarded and plates blotted, and 100 μL per well of primary antibody solution of rabbit anti-H3K23ac antibody (Millipore 07-355) (1:600) and mouse anti-total H3 antibody (CST-14269) (1:500) in Odyssey buffer with 0.1% Tween 20 (v/v) was added to the wells of the plate and incubated for 1 hour. […]
Calculations were performed as follows: First, the ratio for each well was determined by:
[formula] Then, the average of the ratio values for each test well was calculated and used to determine the percent of H3K23Ac from vehicle for each test well in the plate: […]

KMS34 cells = assay: Long term proliferation assay (14-day), KMS34; assay type: cell-based; conditions: KMS-34, 336 h; KMS34, MM; 14-day timepoint; absolute IC50
Experimental: (§1) Long term proliferation assay. A panel of multiple myeloma (MM) and acute myeloid leukemia (AML) cell lines were tested in 14-day proliferation assays. Exponentially growing cells were plated, in triplicate, in 96-well plates at the appropriate cell density in a final volume of 150 μL. Cells were incubated in the presence of increasing concentrations of compound A-30. Viable cell number was determined at 0, 4, 7, 11, and 14 days using Calcein staining and using an Accumen instrument to enumerate the number of cells. On days of cell counts, growth media and compound A-30 were replaced, and cells split back to initial density. Total cell number is expressed as split-adjusted viable cells per well.
(§2) Calculations were performed as follows:
(§3) First, the inhibition of proliferation was calculated for each well at each treatment concentration at each timepoint with the following formula:
(§4) [formula] Then, for each cell line, concentration response curves were plotted as average and standard deviation from triplicate determinations as percent inhibition vs log of concentration of compound A-30. Absolute IC50 values (concentration of compound at which 50% inhibition occurs) were determined from the curve at each timepoint using Graphpad Prism software. An IC50 value of ≤10 μM is designated as “A”; an IC50 value of >10 μM is designated as “B”.

RPMI8226 cells = assay: Long term proliferation assay (14-day), RPMI8226; assay type: cell-based; conditions: Homo sapiens, RPMI-8226, 336 h; RPMI8226, MM; 14-day timepoint; absolute IC50
Experimental: as §1, §2, §3, §4

NOMO1 cells = assay: Long term proliferation assay (14-day), NOMO1; assay type: cell-based; conditions: Homo sapiens, NOMO-1, 336 h; NOMO1, AML; 14-day timepoint; absolute IC50
Experimental: as §1, §2, §3, §4

OCIAML3 cells = assay: Long term proliferation assay (14-day), OCIAML3; assay type: cell-based; conditions: Homo sapiens, OCI-AML-3, 336 h, 14-day timepoint, absolute IC50
Experimental: as §1, §2, §3, §4

KMS11 cells = assay: Long term proliferation assay (14-day), KMS11; assay type: cell-based; conditions: Homo sapiens, KMS-11, 336 h; KMS11, MM; 14-day timepoint; absolute IC50
Experimental: as §1, §2, §3, §4

LP1 cells = assay: Long term proliferation assay (14-day), LP1; assay type: cell-based; conditions: Homo sapiens, LP-1, 336 h; LP1, MM; 14-day timepoint; absolute IC50
Experimental: as §1, §2, §3, §4

OCIAML2 cells = assay: Long term proliferation assay (14-day), OCIAML2; assay type: cell-based; conditions: Homo sapiens, OCI-AML2, 336 h; OCIAML2, AML; 14-day timepoint; absolute IC50
Experimental: as §1, §2, §3, §4

MOLM13 cells = assay: Long term proliferation assay (14-day), MOLM13; assay type: cell-based; conditions: Homo sapiens, MOLM-13, 336 h; MOLM13, AML; 14-day timepoint; absolute IC50
Experimental: as §1, §2, §3, §4

SEM cells = assay: Long term proliferation assay (14-day), SEM; assay type: cell-based; conditions: 336 h, B-ALL, 14-day timepoint, absolute IC50
Experimental: as §1, §2, §3, §4

THP1 cells = assay: Long term proliferation assay (14-day), THP1; assay type: cell-based; conditions: Homo sapiens, THP-1, 336 h; THP1, AML; 14-day timepoint; absolute IC50
Experimental: as §1, §2, §3, §4

KAT-8 = KAT-8 (Homo sapiens (Human), UniProt Q9H7Z6); assay: KAT-8 biochemical inhibition assay (SAMDI mass spectrometry)
How it was run: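 Acetylation of 1 μM peptide substrate with 5 μM acetyl-CoA by 12.5 nM enzyme, compound pre-incubated, 2% DMSO, Tris pH 8.0 buffer with DTT, 25 °C for 90 min. Quench with 0.5% formic acid; product read by SAMDI mass spectrometry to give IC50.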

Sequence of KAT-7 (O95251 other isoform, or with tags, fused parts or gaps): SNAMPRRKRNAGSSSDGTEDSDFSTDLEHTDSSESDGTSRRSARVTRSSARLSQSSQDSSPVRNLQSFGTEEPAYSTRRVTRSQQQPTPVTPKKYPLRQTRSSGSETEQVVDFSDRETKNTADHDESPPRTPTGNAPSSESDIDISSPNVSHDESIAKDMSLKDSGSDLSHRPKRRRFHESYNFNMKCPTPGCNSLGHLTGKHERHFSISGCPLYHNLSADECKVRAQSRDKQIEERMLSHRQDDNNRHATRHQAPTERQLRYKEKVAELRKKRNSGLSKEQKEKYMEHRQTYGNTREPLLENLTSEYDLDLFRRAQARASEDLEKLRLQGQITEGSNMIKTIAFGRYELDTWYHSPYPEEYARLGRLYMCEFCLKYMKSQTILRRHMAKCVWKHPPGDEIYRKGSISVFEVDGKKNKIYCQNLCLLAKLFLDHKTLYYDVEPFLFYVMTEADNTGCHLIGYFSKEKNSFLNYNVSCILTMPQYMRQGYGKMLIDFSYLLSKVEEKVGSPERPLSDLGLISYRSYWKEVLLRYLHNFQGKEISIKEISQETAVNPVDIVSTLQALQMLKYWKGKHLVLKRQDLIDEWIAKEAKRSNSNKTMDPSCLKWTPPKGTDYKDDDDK
Sequence of KAT-8 (Q9H7Z6 other isoform, or with tags, fused parts or gaps): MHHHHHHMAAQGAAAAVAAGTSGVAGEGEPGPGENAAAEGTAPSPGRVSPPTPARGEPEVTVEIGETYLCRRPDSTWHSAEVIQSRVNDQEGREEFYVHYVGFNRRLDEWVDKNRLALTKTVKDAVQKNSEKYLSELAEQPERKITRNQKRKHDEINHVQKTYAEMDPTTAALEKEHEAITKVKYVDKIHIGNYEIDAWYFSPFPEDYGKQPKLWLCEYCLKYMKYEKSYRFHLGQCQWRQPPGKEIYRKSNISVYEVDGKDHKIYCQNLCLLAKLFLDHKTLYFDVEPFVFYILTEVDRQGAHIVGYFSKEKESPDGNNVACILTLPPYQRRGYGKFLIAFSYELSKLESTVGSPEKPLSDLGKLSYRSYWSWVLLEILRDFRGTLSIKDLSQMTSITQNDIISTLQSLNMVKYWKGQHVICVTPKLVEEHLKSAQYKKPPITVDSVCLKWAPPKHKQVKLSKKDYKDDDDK
Sequence of KAT-5 (Q92993 other isoform, or with tags, fused parts or gaps): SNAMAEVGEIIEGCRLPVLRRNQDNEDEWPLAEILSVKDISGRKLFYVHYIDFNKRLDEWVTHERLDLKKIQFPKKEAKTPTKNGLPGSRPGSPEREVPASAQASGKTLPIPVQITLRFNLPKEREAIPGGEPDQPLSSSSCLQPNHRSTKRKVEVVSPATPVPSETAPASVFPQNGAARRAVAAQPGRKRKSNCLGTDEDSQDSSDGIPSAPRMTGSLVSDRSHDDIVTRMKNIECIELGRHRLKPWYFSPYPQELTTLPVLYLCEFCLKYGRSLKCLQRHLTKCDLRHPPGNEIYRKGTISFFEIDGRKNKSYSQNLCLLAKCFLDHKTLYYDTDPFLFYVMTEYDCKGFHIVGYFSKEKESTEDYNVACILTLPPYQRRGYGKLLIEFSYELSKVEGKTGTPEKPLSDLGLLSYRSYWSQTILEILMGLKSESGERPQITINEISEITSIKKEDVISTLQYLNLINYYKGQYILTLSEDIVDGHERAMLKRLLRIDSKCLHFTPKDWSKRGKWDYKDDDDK
Sequence of KAT-6A (Q92794 other isoform, or with tags, fused parts or gaps): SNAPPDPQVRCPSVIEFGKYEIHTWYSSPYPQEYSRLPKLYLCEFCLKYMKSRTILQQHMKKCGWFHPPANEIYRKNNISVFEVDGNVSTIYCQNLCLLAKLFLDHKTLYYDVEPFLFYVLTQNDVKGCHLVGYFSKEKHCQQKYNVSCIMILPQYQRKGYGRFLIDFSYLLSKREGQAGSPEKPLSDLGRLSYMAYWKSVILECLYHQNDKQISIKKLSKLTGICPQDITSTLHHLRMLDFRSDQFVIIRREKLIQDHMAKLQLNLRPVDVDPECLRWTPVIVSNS

Structure (SMILES)	pIC50 (KAT-5)	pIC50 (KAT-6A)	pIC50 (KAT-7)	pIC50 (KAT-8)	further results
COCc1cc(Cl)c(F)c(C(=O)NNS(=O)(=O)c2cccc(O)c2)c1 [Compound A-30]	–	–	–	–	pIC50 (KAT-5; Table 5): ≥ 5.00; pIC50 (KAT-6A; Table 5): ≥ 6.00; pIC50 (KAT-7; Table 5): ≥ 5.00; inhibition of acetylation of H3K23 [1]: inhibition of acetylation of H3 K23; pIC50 (KMS34 cells): ≥ 5.00; pIC50 (RPMI8226 cells): ≥ 5.00; pIC50 (NOMO1 cells): ≥ 5.00; pIC50 (OCIAML3 cells): ≥ 5.00; pIC50 (KMS11 cells): ≥ 5.00; pIC50 (LP1 cells): ≥ 5.00; pIC50 (OCIAML2 cells): < 5.00; pIC50 (MOLM13 cells): < 5.00; pIC50 (SEM cells): < 5.00; pIC50 (THP1 cells): < 5.00
Cn1cnc(-c2cc(Cl)c(F)c(C(=O)NNS(=O)(=O)C[C@@H]3CCOC3)c2)c1 [Compound I-372]	> 5.00	4.30 to 5.00	> 5.00	4.30 to 5.00	–
COCCc1c(-c2cc(Cl)c(F)c(C(=O)NNS(=O)(=O)CC3CCOCC3)c2)cnn1C [Compound I-373]	4.30 to 5.00	4.30 to 5.00	4.30 to 5.00	4.30 to 5.00	–
Cn1cnc(-c2cc(Cl)c(F)c(C(=O)NNS(=O)(=O)c3cccnc3OCc3ccccc3)c2)c1 [Compound I-374]	> 5.00	> 5.00	> 5.00	4.30 to 5.00	–
Cn1cnc(-c2cc(Cl)c(F)c(C(=O)NNS(=O)(=O)c3cccc(OCc4ccccc4)n3)c2)c1 [Compound I-375]	> 5.00	> 5.00	> 5.00	4.30 to 5.00	–
CN(C(=O)OC(C)(C)C)c1ccc(S(=O)(=O)NNC(=O)c2cc(-c3cn(C)cn3)cc(Cl)c2F)cc1 [Compound I-377]	4.30 to 5.00	4.30 to 5.00	> 5.00	4.30 to 5.00	–
Cn1cnc(-c2cc(Cl)c(F)c(C(=O)NNS(=O)(=O)c3c(F)cccc3F)c2)c1 [Compound I-378]	> 5.00	> 5.00	> 5.00	4.30 to 5.00	–
CC(=O)Nc1ccc(S(=O)(=O)NNC(=O)c2cc(-c3cn(C)cn3)cc(Cl)c2F)cc1 [Compound I-379]	4.30 to 5.00	4.30 to 5.00	> 5.00	4.30 to 5.00	–
CCOc1ccc(S(=O)(=O)NNC(=O)c2cc(-c3cn(C)cn3)cc(Cl)c2F)cc1 [Compound I-380]	> 5.00	> 5.00	> 5.00	4.30 to 5.00	–
